# Patent US5798336A, “Antimicrobial peptides” (priority 1995, dated 1998)
# Where a SMILES comes first, the peptide text is derived from it.
# How the values were obtained:
# P. aeruginosa ATCC 27853 = settings: ATCC 27853, 500
# [1] = test system: N. gonorrhoeae strain WS1; settings: strain WS1, 500
# S. aureus strain 8325-4 = settings: strain 8325-4, 500
SMILES,Log Kill (500 μg/ml) P. aeruginosa ATCC 27853 (P. aeruginosa ATCC 27853) [log],Log Kill (500 μg/ml) P. aeruginosa ATCC 278533 (P. aeruginosa ATCC 27853) [log],Log Kill (500 μg/ml) N. gonorrhoeae strain WS1 [1] [log],Log Kill (500 μg/ml) N. gonorrhoeae strain WSI [1] [log],Log Kill (500 μg/ml) S. aureus strain 8325-4 (S. aureus strain 8325-4) [log]
CC[C@H](C)[C@H](N)C(=O)N[C@H](C(=O)NCC(=O)NCC(=O)N[C@@H](CCCNC(=N)N)C(=O)N[C@@H](CCC(=O)O)C(=O)N[C@@H](CO)C(=O)N[C@@H](CCCNC(=N)N)C(=O)N1CCC[C@H]1C(=O)N[C@@H](Cc1c[nH]cn1)C(=O)N[C@@H](CO)C(=O)N[C@@H](CCCNC(=N)N)C(=O)N1CCC[C@H]1C(=O)N[C@@H](Cc1ccc(O)cc1)C(=O)N[C@@H](CCSC)C(=O)N[C@@H](C)C(=O)N[C@@H](Cc1ccc(O)cc1)C(=O)N[C@@H](CC(C)C)C(=O)N[C@@H](CCC(N)=O)C(=O)N[C@H](C(=O)O)[C@@H](C)CC)[C@@H](C)CC [CG 1-20] (H-IIGGRESRPHSRPYMAYLQI-OH),5.507,1.0,2.57,0.43,0.3
CC(C)C[C@H](NC(=O)[C@@H](NC(=O)[C@H](Cc1ccccc1)NC(=O)[C@H](CC(=O)O)NC(=O)[C@H](CCC(=O)O)NC(=O)[C@H](CCCNC(=N)N)NC(=O)[C@@H](NC(=O)[C@H](CC(C)C)NC(=O)[C@H](Cc1ccccc1)NC(=O)CNC(=O)CNC(=O)[C@H](CS)NC(=O)[C@H](CCCNC(=N)N)NC(=O)[C@H](CO)NC(=O)[C@H](CCC(N)=O)NC(=O)CNC(=O)[C@H](C)NC(=O)[C@@H]1CCCN1C(=O)[C@H](CO)NC(=O)[C@@H](N)CCC(N)=O)C(C)C)C(C)C)C(=O)O [CG 21-40] (H-QSPAGQSRCGGFLVREDFVL-OH),-0.034,–,0.05,–,–
CC[C@H](C)[C@H](NC(=O)[C@H](CC(N)=O)NC(=O)[C@H](Cc1c[nH]cn1)NC(=O)[C@H](C)NC(=O)CNC(=O)[C@H](CC(C)C)NC(=O)[C@@H](NC(=O)[C@@H](NC(=O)[C@H](CC(N)=O)NC(=O)[C@@H](NC(=O)[C@H](CC(N)=O)NC(=O)[C@H](CO)NC(=O)CNC(=O)[C@H](Cc1c[nH]c2ccccc12)NC(=O)[C@H](CS)NC(=O)[C@H](Cc1c[nH]cn1)NC(=O)[C@H](C)NC(=O)[C@H](C)NC(=O)[C@@H](N)[C@@H](C)O)[C@@H](C)CC)C(C)C)[C@@H](C)O)C(=O)N[C@@H](CCC(N)=O)C(=O)O [CG 41-60] (H-TAAHCWGSNINVTLGAHNIQ-OH),0.5,–,-0.09,–,–
CC[C@H](C)[C@H](NC(=O)[C@H](C)NC(=O)[C@H](CCCNC(=N)N)NC(=O)[C@H](CCCNC(=N)N)NC(=O)[C@H](C)NC(=O)[C@@H](NC(=O)[C@@H](NC(=O)[C@H](Cc1c[nH]cn1)NC(=O)[C@H](CCC(N)=O)NC(=O)[C@H](CCC(N)=O)NC(=O)[C@@H](NC(=O)[C@H](CC(N)=O)NC(=O)[C@H](CCC(=O)O)NC(=O)[C@H](CCCNC(=N)N)NC(=O)[C@@H](N)CCCNC(=N)N)[C@@H](C)O)[C@@H](C)CC)[C@@H](C)O)C(=O)N[C@@H](CCCNC(=N)N)C(=O)N[C@@H](Cc1c[nH]cn1)C(=O)N1CCC[C@H]1C(=O)N[C@@H](CCC(N)=O)C(=O)N[C@@H](Cc1ccc(O)cc1)C(=O)O [CG 61-80] (H-RRENTQQHITARRAIRHPQY-OH),–,5.15,0,–,0.58
CC[C@H](C)[C@H](NC(=O)[C@H](CC(=O)O)NC(=O)[C@H](CC(N)=O)NC(=O)[C@H](CCC(N)=O)NC(=O)[C@@H](NC(=O)[C@@H](NC(=O)[C@H](CCCNC(=N)N)NC(=O)[C@H](CCC(N)=O)NC(=O)[C@H](CC(N)=O)NC(=O)[C@H](Cc1ccc(O)cc1)NC(=O)[C@H](CCC(N)=O)NC(=O)[C@@H]1CCCN1C(=O)[C@@H](N)Cc1c[nH]cn1)[C@@H](C)O)[C@@H](C)CC)C(=O)N[C@@H](CCSC)C(=O)N[C@@H](CC(C)C)C(=O)N[C@@H](CC(C)C)C(=O)N[C@@H](CCC(N)=O)C(=O)N[C@@H](CC(C)C)C(=O)N[C@@H](CO)C(=O)N[C@@H](CCCNC(=N)N)C(=O)O [CG 77-96] (H-HPQYNQRTIQNDIMLLQLSR-OH),0.06,–,0.24,–,–
CC(C)C[C@H](NC(=O)CNC(=O)[C@H](CCC(=O)O)NC(=O)[C@H](CCC(N)=O)NC(=O)[C@H](C)NC(=O)[C@H](CCCNC(=N)N)NC(=O)[C@@H]1CCCN1C(=O)[C@H](CC(C)C)NC(=O)[C@H](C)NC(=O)[C@@H](NC(=O)[C@@H]1CCCN1C(=O)[C@H](CC(N)=O)NC(=O)[C@@H](NC(=O)[C@H](CC(N)=O)NC(=O)[C@H](CCCNC(=N)N)NC(=O)[C@H](CC(N)=O)NC(=O)[C@H](CCCNC(=N)N)NC(=O)[C@H](CCCNC(=N)N)NC(=O)[C@@H](NC(=O)[C@@H](N)CCCNC(=N)N)C(C)C)C(C)C)C(C)C)C(=O)O [CG 97-116] (H-RVRRNRNVNPVALPRAQEGL-OH),5.93,0.22,-0.21,0.2,-0.1
CC(C)C[C@H](NC(=O)[C@@H](NC(=O)CNC(=O)[C@@H]1CCCN1C(=O)[C@@H](N)CCCNC(=N)N)[C@@H](C)O)C(=O)N[C@@H](CS)C(=O)N[C@H](C(=O)N[C@H](C(=O)N[C@@H](C)C(=O)NCC(=O)N[C@@H](Cc1c[nH]c2ccccc12)C(=O)NCC(=O)N[C@@H](CCCNC(=N)N)C(=O)O)C(C)C)[C@@H](C)O [CG 117-129] (H-RPGTLCTVAGWGR-OH),0.86,–,0.05,–,0
CSCC[C@H](NC(=O)[C@H](CO)NC(=O)[C@@H](NC(=O)[C@H](CCCNC(=N)N)NC(=O)CNC(=O)[C@H](Cc1c[nH]c2ccccc12)NC(=O)CNC(=O)[C@H](C)NC(=O)[C@@H](NC(=O)[C@@H](NC(=O)[C@H](CS)NC(=O)[C@H](CC(C)C)NC(=O)[C@@H](NC(=O)CNC(=O)[C@@H]1CCCN1C(=O)[C@@H](N)CCCNC(=N)N)[C@@H](C)O)[C@@H](C)O)C(C)C)C(C)C)C(=O)N[C@@H](CCCNC(=N)N)C(=O)N[C@@H](CCCNC(=N)N)C(=O)NCC(=O)N[C@H](C(=O)O)[C@@H](C)O [CG 117-136] (H-RPGTLCTVAGWGRVSMRRGT-OH),5.8,5.88,–,–,5.34
